Laboratory results taken from publication PMC10535535, “Imidazopyridine-Based Thiazole Derivatives as Potential Antidiabetic Agents: Synthesis, In Vitro Bioactivity, and In Silico Molecular Modeling Approach” (Pharmaceuticals, 2023).

The compounds below were run against α-glucosidase (assay: α-glucosidase inhibition assay (pNPG, spectrophotometric)). Settings: in vitro, pNPG substrate, 37 °C, triplicate; read-out: IC50 ± SEM.
Assay type: biochemical
Experimental: With slight modification to an earlier technique, the α-glucosidase inhibition profiles of the synthesized scaffolds were assessed spectrophotometrically. Amounts of 10 μL of the sample, 120 μL of 100 mM potassium phosphate buffer, and […] of a 0.5 U/mL α-glucosidase solution (0.3 mM, in buffer) were combined for each chemical. […] Each combination was incubated at 37 °C for a separate period of 15 min. […] Once more, the mixture was incubated for 15 min at 37 °C. At that point, 80 μL of a 0.2 M sodium carbonate solution was administered to terminate the process. The mixture that included no enzymes also functioned as a blank sample. At 405 nm, the absorbance was finally calculated. To accurately measure the background absorbance, the blank sample, which replaced the substrate with 50 μL of the buffer, was examined. […] Assuming that A represents the absorbance of the control without test samples and B represents the absorbance with test samples present, the percentage of enzyme inhibition was computed as (1 B/A) 100. […] 4.4. Assay protocol for α-glucosidase inhibition The α-glucosidase inhibition profiles of synthesized scaffolds were determined spectrophotometrically, with some modifications to an earlier method. For each chemical, 10 μL of the sample, 120 μL of 100 mM potassium phosphate buffer, and 20 μL of 0.5 U/mL alpha-glucosidase solution was mixed (0.3 mM, in buffer). […] At 37 °C, each mixture was incubated for a separate 15 minutes. The enzymatic reaction was initiated by adding 20 μL of the substrate 4-nitrophenyl- D-α-glucopyranoside (pNPG) (5 mM) to the solution. The mixture was once more incubated at 37 °C for 15 minutes. To stop the process at that point, 80μL of sodium carbonate solution were injected (0.2 M). Additionally, the mixture without any enzymes served as a blank sample. The absorbance was finally determined at 405 nm. The blank sample, in which the substrate was swapped out for 50 μL of the buffer, was analyzed to properly quantify the background absorbance. […] The percentage of enzyme inhibition was calculated as (1 B/A) 100, assuming that A represents the absorbance of the control without test samples and B represents the absorbance with test samples present. The analyses were carried out in triplicate, and the results were presented as mean SD. 4.5. […] On the Discovery Studio R2 64-bit Client system, interactive molecular structure visualization and analysis were done. From the RCSB Protein Data Bank, the three-dimensional (3D) structure of α-glucosidase was retrieved (PDB). The chemical structures of the ligands were obtained from the Pub Chem compound database. Using Open Babel, the PDB files were converted into PDBQT files. For docking analysis, the PDB coordinates of the ligands and targets were optimized. Geometry optimization is carried out using Gaussian 09 (adding missing residues). […] Further details were summarized in our previous articles.

| Structure (SMILES) | IC50 [µM] |
| --- | --- |
| COc1cc(O)ccc1-c1csc(N/N=C\c2cnc3ccc(F)cn23)n1 [4i] | 34.9 ± 5.84 |
| Cc1cc(Cl)ccc1-c1csc(N/N=C\c2cnc3ccc(F)cn23)n1 [4k] | 34.7 ± 5.23 |
| Cc1ccc(-c2csc(N/N=C\c3cnc4ccc(F)cn34)n2)c([N+](=O)[O-])c1 [4j] | 22.6 ± 3.55 |
| CN(C)c1ccc(-c2csc(N/N=C\c3cnc4ccc(F)cn34)n2)cc1 [4d] | 32.1 ± 4.29 |
| Cc1ccc(-c2ccc(-c3csc(N/N=C\c4cnc5ccc(F)cn45)n3)cc2)cc1 [4n] | 61.4 ± 4.56 |
| Cc1ccccc1-c1csc(N/N=C\c2cnc3ccc(F)cn23)n1 [4h] | 43.2 ± 6.16 |
| COc1cc(C)ccc1-c1csc(N/N=C\c2cnc3ccc(F)cn23)n1 [4e] | 44.9 ± 5.27 |
| Cc1ccc(-c2csc(N/N=C\c3cnc4ccc(F)cn34)n2)c(C)c1 [4f] | 51 ± 5.8 |
| Fc1ccc2ncc(/C=N\Nc3nc(-c4ccc(-c5ccccc5)cc4)cs3)n2c1 [4c] | 63.5 ± 5.28 |
| COc1ccc(-c2csc(N/N=C\c3cnc4ccc(F)cn34)n2)c(OC)c1 [4m] | 56.3 ± 5.94 |

Now those with a lower IC50, led by results:

| IC50 [µM] | Structure (SMILES) |
| --- | --- |
| 19.3 ± 2.58 | Fc1ccc2ncc(/C=N\Nc3nc(-c4ccc(Cl)cc4Cl)cs3)n2c1 [4l] |
| 13.6 ± 1.67 | O=[N+]([O-])c1cc(Cl)ccc1-c1csc(N/N=C\c2cnc3ccc(F)cn23)n1 [4b] |
| 10.5 ± 2.2 | Oc1ccc(-c2csc(N/N=C\c3cnc4ccc(F)cn34)n2)c(O)c1 [4p] |
| 7.16 ± 1.4 | O=[N+]([O-])c1ccc(O)c(-c2csc(N/N=C\c3cnc4ccc(F)cn34)n2)c1 [4o, (Z)-2-(2-(2-((6-fluoroimidazo[1,2-a]pyridin-3-yl)methylene)hydrazineyl)thiazol-4-yl)-4-nitrophenol] |
| 6.85 ± 2.18 | O=[N+]([O-])c1cc(-c2csc(N/N=C\c3cnc4ccc(F)cn34)n2)cc(C(F)(F)F)c1 [4a] |
| 5.57 ± 3.45 | O=[N+]([O-])c1ccc(C(F)(F)F)c(-c2csc(N/N=C\c3cnc4ccc(F)cn34)n2)c1 [4g] |

Same assay, conditions: unit not given; in µM

| IC50 | Structure (SMILES) |
| --- | --- |
| 34.91 ± 5.84 | COc1cc(O)ccc1-c1csc(N/N=C\c2cnc3ccc(F)cn23)n1 [4i] |

Same assay, conditions: versus acarbose

| potency as compared to the standard drug | Structure (SMILES) |
| --- | --- |
| two-fold more potency | Cc1ccc(-c2csc(N/N=C\c3cnc4ccc(F)cn34)n2)c([N+](=O)[O-])c1 [4j] |
| two-fold more potency | Fc1ccc2ncc(/C=N\Nc3nc(-c4ccc(Cl)cc4Cl)cs3)n2c1 [4l] |
